Laboratory results reported in PubChem BioAssay AID1033 (Sanford-Burnham Center for Chemical Genomics, 2008).
Active and inactive are the calls of the source. The rule behind the calls is not given here.

Target: Chaperone protein DnaK (Escherichia coli (strain K12)) (UniProt P0A6Y8)
Experiment: E. coli DnaK SBD ligand binding – biophysical, NMR, chaperone (AID 1033)
Conditions: Purified DnaK SBD

Chaperone protein DnaK (Escherichia coli (strain K12)), sequence (P0A6Y8 whole entry, looked up): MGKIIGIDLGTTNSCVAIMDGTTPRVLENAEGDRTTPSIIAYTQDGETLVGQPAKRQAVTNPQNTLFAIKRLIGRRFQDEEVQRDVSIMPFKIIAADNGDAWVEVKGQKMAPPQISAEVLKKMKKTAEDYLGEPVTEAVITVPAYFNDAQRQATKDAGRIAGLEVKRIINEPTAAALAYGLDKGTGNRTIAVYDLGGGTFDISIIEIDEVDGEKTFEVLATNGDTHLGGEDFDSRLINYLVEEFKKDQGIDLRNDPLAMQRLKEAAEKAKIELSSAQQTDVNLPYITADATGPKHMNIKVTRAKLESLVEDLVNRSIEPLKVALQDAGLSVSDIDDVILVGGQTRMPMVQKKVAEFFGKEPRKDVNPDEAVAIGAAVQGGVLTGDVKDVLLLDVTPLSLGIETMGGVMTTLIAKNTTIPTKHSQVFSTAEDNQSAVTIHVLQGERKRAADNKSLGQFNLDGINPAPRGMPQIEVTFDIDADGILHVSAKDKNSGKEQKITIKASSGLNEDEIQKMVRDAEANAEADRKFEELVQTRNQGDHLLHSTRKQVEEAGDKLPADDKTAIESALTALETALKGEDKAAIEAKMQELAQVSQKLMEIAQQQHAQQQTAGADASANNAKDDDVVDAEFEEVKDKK

| Compound | Kd |
| --- | --- |
| CSc1ccccc1NC(=O)c1c(C)noc1C | > 4 mM (inactive) |
| CC1(C)C2C[C@@H](O)[C@]3(C)C(CC[C@@]4(C)[C@H](c5ccoc5)OC(=O)[C@H]5O[C@]543)[C@@]2(C)[C@@H](O)C[C@H]1O (stereo partly drawn) | > 4 mM (inactive) |
| COCC(=O)NC1CC(C)(C)NC(C)(C)C1 | > 4 mM (inactive) |
| Fc1cccc(Cl)c1CN1CCNCC1 | > 4 mM (inactive) |
| COc1ccc(Cc2nnc3c4cnn(C)c4ncn23)cc1 | > 4 mM (inactive) |
| O=C(O)c1cncc(-c2cccs2)c1 | > 4 mM (inactive) |
| CC1=NCCc2c1[nH]c1cc(O)ccc21 | > 4 mM (inactive) |
| CN=C(C)c1c(O)n(C)c(=O)n(C)c1=O | > 4 mM (inactive) |
| CNC(=O)c1cc(C)c(-c2ccccc2)s1 | > 4 mM (inactive) |
| Cc1cc(=O)n2[nH]cnc2n1 | > 4 mM (inactive) |
| OC1CNCc2cc3c(cc21)OCCO3 (stereo not drawn) | > 4 mM (inactive) |
| NCCN=C1NS(=O)(=O)c2ccccc21 | > 4 mM (inactive) |
| Cn1c(CO)nc2cc(N)ccc21 | > 4 mM (inactive) |
| Nc1nc(SCC(=O)c2ccc([N+](=O)[O-])cc2)n[nH]1 | > 4 mM (inactive) |
| O=C(c1cccc(-n2cnnn2)c1)N1CCOCC1 | > 4 mM (inactive) |
| C[C@@H]1CC[C@]2(C(=O)O)CC[C@]3(C)C(=CCC4[C@@]5(C)CC[C@H](O)C(C)(C)C5CC[C@]43C)C2[C@H]1C (stereo partly drawn) | > 4 mM (inactive) |
| S=c1nc[nH]c2c1cnn2-c1ccccc1 | > 4 mM (inactive) |
| Cc1ccc(C(O)c2nccn2C)o1 (stereo not drawn) | > 4 mM (inactive) |
| CCN1CCC(NC2CCC(O)CC2)CC1 (stereo not drawn) | > 4 mM (inactive) |
| O=C1CSC(=S)N1N1C(=O)C2C3C=CC(C3)C2C1=O (stereo not drawn) | > 4 mM (inactive) |
| O=C(O)C1(O)C[C@@H](O)C(O)[C@H](O)C1 (stereo partly drawn) | > 4 mM (inactive) |
| CC(C)=CCC[C@](C)(O)C1CC=C(C)CC1 (stereo partly drawn) | > 4 mM (inactive) |
| O=C(O)CC1Sc2ccccc2NC1=O (stereo not drawn) | > 4 mM (inactive) |
| Nc1ccc(N2CCOCC2)c(Cl)c1 | > 4 mM (inactive) |

| Compound | Kd |
| --- | --- |
| Cn1c(=O)n(-c2cccc(Cl)c2)c(=O)n1C | > 4 mM (inactive) |
| COc1ccc(C(=O)NNC(=S)NC(C)=O)cc1 | > 4 mM (inactive) |
| Cc1cc(C(=O)c2c(C)nn(C)c2Cl)n(C)n1 | > 4 mM (inactive) |
| NCCCCN | > 4 mM (inactive) |
| COc1ccc(S(=O)(=O)N2CCOCC2)cc1C(C)C | > 4 mM (inactive) |
| Nc1cc(=O)[nH]c(=S)n1-c1ccc(F)cc1 | > 4 mM (inactive) |
| Oc1ccc(/C=C/c2cc(O)cc(O)c2)cc1 | > 4 mM (inactive) |
| COc1c(O)cccc1O | > 4 mM (inactive) |
| COC(=O)C[C@H]1C(C)(C)C(=O)[C@@H]2CC3=C4CC(=O)O[C@@H](c5ccoc5)[C@]4(C)CCC3C1(C)C2=O (stereo partly drawn) | > 4 mM (inactive) |
| O=C1C=C(Nc2ccccc2O)c2ccccc2C1=O | > 4 mM (inactive) |
| CCOC(=O)CSc1nnc(C)c(=O)[nH]1 | > 4 mM (inactive) |
| CC(=O)Nc1ccc(NC(=O)C2CC2)cc1 | > 4 mM (inactive) |
| Cc1cc(C)n(S(=O)(=O)c2ccc(C(C)(C)C)cc2)n1 | > 4 mM (inactive) |
| CN(C)S(=O)(=O)c1ccc(N2CCOCC2)nc1 | > 4 mM (inactive) |
| Cc1ccc2cc(N)ccc2n1 | > 4 mM (inactive) |
| CC1(C)CC2C1CC[C@]1(C)CCC3C(C(=O)O)CC(=O)O[C@@]32C1 (stereo partly drawn) | > 4 mM (inactive) |
| Cc1c(C)c2c(c(C)c1O)CCC(C)(CCCC(C)CCCC(C)CCCC(C)C)O2 (stereo not drawn) | > 4 mM (inactive) |
| O=C1CC(=O)N(Cc2ccco2)C(=S)N1 | > 4 mM (inactive) |
| CN(C)N1C(=O)C2C3C=CC(O3)C2C1=O (stereo not drawn) | > 4 mM (inactive) |
| COc1ccc(C2CC(=O)c3ccc(OC)cc3O2)cc1 (stereo not drawn) | > 4 mM (inactive) |
| CNC(=O)C1COc2ccccc2O1 (stereo not drawn) | > 4 mM (inactive) |
| CC1(C)CCC(C)(C)c2cc(C(=O)O)ccc21 | > 4 mM (inactive) |
| CN1C(=O)c2ccc(N3CCCC3)cc2C1=O | > 4 mM (inactive) |
| C=C1C2CC[C@@]3(C)[C@H](c4ccoc4)OC(=O)C[C@]13O[C@H]1CC(=O)C(C)(C)[C@H](C(OC(C)=O)C(=O)OC)[C@@]21C (stereo partly drawn) | > 4 mM (inactive) |

| Compound | Kd |
| --- | --- |
| CC1=C(C(=O)Nc2ccccc2)SCCO1 | > 4 mM (inactive) |
| CSc1ccn(CCC(=O)O)c(=O)n1 | > 4 mM (inactive) |
| Clc1ncnc2[nH]ncc12 | > 4 mM (inactive) |
| O=C1CNC(=O)N1Cc1ccc(F)cc1 | > 4 mM (inactive) |
| CN1CCCC1C(=O)O (stereo not drawn) | > 4 mM (inactive) |
| CC(=O)O[C@H]1CC[C@@]2(C)C(=CC(=O)C3C4CCC(C(C)CCCC(C)C)[C@@]4(C)CCC32)C1 (stereo partly drawn) | > 4 mM (inactive) |
| O=c1[nH]cnc2c1nnn2Cc1ccccc1 | > 4 mM (inactive) |
| O=C(Nc1ccc2c(c1)CCC2)c1cnccn1 | > 4 mM (inactive) |
| COc1cc2c3cc1Oc1cc(ccc1O)C[C@@H]1c4c(cc(OC)c(O)c4Oc4ccc(cc4)C[C@@H]3N(C)CC2)CC[N+]1(C)C | > 4 mM (inactive) |
| O=C(O)CCCN1CNC(=S)NC1 | > 4 mM (inactive) |
| CC1(C)C=Cc2cc3ccc(=O)oc3cc2O1 | > 4 mM (inactive) |
| C/C=C/c1ccc2c(c1)OCO2 | > 4 mM (inactive) |
| COc1c2occc2cc2ccc(=O)oc12 | > 4 mM (inactive) |
| CC(=O)Nc1ccc(C(=O)N2CCOCC2)cc1Cl | > 4 mM (inactive) |
| COC(=O)c1ccc2nc[nH]c2c1 | > 4 mM (inactive) |
| O=c1oc(-c2ccccc2)nc2c1cnn2-c1ccccc1 | > 4 mM (inactive) |
| COc1ccc(CC(=O)c2ccc(O)cc2O)cc1 | > 4 mM (inactive) |
| c1ccc(-c2n[nH]c(-c3ccccn3)n2)nc1 | > 4 mM (inactive) |
| CCn1c(-c2ccccc2)n[nH]c1=S | > 4 mM (inactive) |
| CC(=O)Oc1cc(OC(C)=O)c2c(c1)O[C@H](c1ccc(OC(C)=O)c(OC(C)=O)c1)[C@H](OC(C)=O)C2 | > 4 mM (inactive) |
| Cc1noc(C)c1C(=O)NCc1cccs1 | > 4 mM (inactive) |
| CC(=O)O[C@H]1CC[C@@]2(C)C(CC[C@]3(C)C2C(=O)C=C2C4[C@@H](C)[C@H](C)CC[C@]4(C(=O)O)CC[C@]23C)C1(C)C (stereo partly drawn) | > 4 mM (inactive) |
| CCN1C(=O)c2cccc3c(S(N)(=O)=O)ccc1c23 | > 4 mM (inactive) |
| CN1CCN(c2cc(=O)n(C)c(=O)[nH]2)CC1 | > 4 mM (inactive) |

| Compound | Kd |
| --- | --- |
| O=C(Oc1ccc2c(c1)OCC2=O)c1ccccc1 | > 4 mM (inactive) |
| CC1CN(C2=NCCN2)CC(C)O1 (stereo not drawn) | > 4 mM (inactive) |
| CN1C(=O)CC(=O)N(C)c2ccccc21 | > 4 mM (inactive) |
| CCOc1ccc(N2C(=O)CCC2=O)cc1 | > 4 mM (inactive) |
| Nc1ccc2ncsc2c1 | > 4 mM (inactive) |
| Cc1nc(-c2ccc(C(=O)O)s2)cs1 | > 4 mM (inactive) |
| O=C(c1cnsn1)N1CCN(c2ccccn2)CC1 | > 4 mM (inactive) |
| ON=c1ccc2nc3ccccc3nc2cc1 | > 4 mM (inactive) |
| OC12C=CC(CC1)CC2 | > 4 mM (inactive) |
| Cc1nn(-c2ccccc2)nc1C(=O)O | > 4 mM (inactive) |
| Nc1ccc2[nH]ccc2c1 | > 4 mM (inactive) |
| CC1(C)CC(=O)c2sc(N)nc2C1 | > 4 mM (inactive) |
| O=C(c1cnsn1)N1CCN(c2ccccc2)CC1 | > 4 mM (inactive) |
| COC(=O)c1sccc1S(=O)(=O)N1CCCC1 | > 4 mM (inactive) |
| OCC1CNc2ccccc2O1 (stereo not drawn) | > 4 mM (inactive) |
| c1ccc2c(c1)CN1CCCC1=N2 | > 4 mM (inactive) |
| O=C1C=CC2=C3c4cc(O)c(O)cc4C[C@@]3(O)COC2=C1 | > 4 mM (inactive) |
| C/C(O)=c1/sc2cc(C)nc(=N)n2c1=O | > 4 mM (inactive) |
| CC(=O)Nc1ccc(C(=O)NC2=NCCS2)cc1 | > 4 mM (inactive) |
| Cc1cccc(NC(=O)CN2C(=O)CNC2=O)c1 | > 4 mM (inactive) |
| COC(=O)NCc1cc2cc(Cl)ccc2[nH]1 | > 4 mM (inactive) |
| Nc1ccc(-c2cn3c(n2)SCC3)cc1 | > 4 mM (inactive) |
| COc1cc(C(=S)N2CCCC2)cc(Cl)c1O | > 4 mM (inactive) |
| C[n+]1cc2c3c(ccc2c2ccc4cc5c(cc4c21)OCO5)OCO3 | > 4 mM (inactive) |

| Compound | Kd |
| --- | --- |
| Cc1cc(C)n(CC(=O)NC2CCCCC2)n1 | > 4 mM (inactive) |
| CC(=O)OC1CCC2(O)CC1(C)CCC1C2CC1(C)C (stereo not drawn) | > 4 mM (inactive) |
| Nc1oncc1-c1ccccn1 | > 4 mM (inactive) |
| CCOC(=O)C1C(=O)C2CCN1CC2 (stereo not drawn) | > 4 mM (inactive) |
| CCn1cnc2sc(C(=O)O)c(C)c2c1=O | > 4 mM (inactive) |
| CN1CCC(N2CCN(C)CC2)CC1 | > 4 mM (inactive) |
| NCc1ccc(-n2cccc2)cc1 | > 4 mM (inactive) |
| CCN1C[C@@]2(COC)C3[C@@H](OC)[C@H]4[C@@H]1[C@]3(C(OC)C[C@H]2O)C1C[C@@]2(O)[C@H](OC(=O)c3ccccc3)C1[C@]4(OC(C)=O)[C@@H](O)[C@@H]2OC (stereo partly drawn) | > 4 mM (inactive) |
| CCOC(=O)c1cc(C)n(-n2cnnc2)c1C | > 4 mM (inactive) |
| C/C=C1\[C@H]2C=C(C)C[C@]1(N)c1ccc(=O)[nH]c1C2 | > 4 mM (inactive) |
| CC(=O)N/N=C(\C)c1cccc(N)c1 | > 4 mM (inactive) |
| Cc1cc(C)n2nc(C(=O)NCc3ccco3)nc2n1 | > 4 mM (inactive) |
| COCC(=O)Nc1c(C(N)=O)oc2ccccc12 | > 4 mM (inactive) |
| OCCCc1nc2ccc(C(F)(F)F)cc2[nH]1 | > 4 mM (inactive) |
| Cn1c(=O)c2[nH]cnc2n(-c2ccccc2)c1=O | > 4 mM (inactive) |
| O=S1(=O)C=C(Nc2ccccc2)CC1 | > 4 mM (inactive) |
| Cc1oc(-c2ccccc2)nc1CC(=O)O | > 4 mM (inactive) |
| O=C(c1cc2ccccc2o1)N1CCCCCC1 | > 4 mM (inactive) |
| O=C(/C=C1\SC(=O)NC1=O)NCc1ccccc1 | > 4 mM (inactive) |
| CSc1ccccc1C(=O)N1CCOCC1 | > 4 mM (inactive) |
| COc1ccccc1CNc1nc2nc(C)cc(=O)n2[nH]1 | > 4 mM (inactive) |
| O=c1[nH]cnc2nn(-c3ccccc3)nc12 | > 4 mM (inactive) |
